“And” between values parts separate entries of the source, which are not always exact repeats. Equal values may be shown once.
Assays:
Assay type in all cases: biochemical
[1] = system: PSA; test: Effect of trigger pH: PSA on LodeStar particles with ascorbate
Description: B. In order to determine the effect of trigger solution pH on a variety of test assay systems, a series of experiments were conducted varying trigger pH. […] In the tables, two pH values are listed for each data set. The first is the pH of the buffer sample added to the reaction mixture. The second is the resulting pH of the final reaction mix.

[2] = molecular target: T1, HRP (Armoracia rusticana, UniProt P00433); test: HRP model system on silica particles, with and without ascorbic acid; details: 150 μM Ascorbate; for RLU: replicates
T1 construct: purchased Roche Diagnostics, Indianapolis, Ind., USA
T1 sequence (P00433 31-338 limits assumed): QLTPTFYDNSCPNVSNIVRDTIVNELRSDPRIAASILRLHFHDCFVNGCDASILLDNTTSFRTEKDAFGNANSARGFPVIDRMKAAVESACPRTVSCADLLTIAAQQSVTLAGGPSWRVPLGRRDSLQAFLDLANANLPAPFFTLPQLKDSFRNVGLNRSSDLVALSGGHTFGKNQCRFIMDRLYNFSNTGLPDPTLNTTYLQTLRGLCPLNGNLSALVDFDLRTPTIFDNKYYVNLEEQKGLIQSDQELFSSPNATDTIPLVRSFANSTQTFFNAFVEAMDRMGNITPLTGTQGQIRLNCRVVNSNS
Description: In order to further investigate the effect of specific solid phase particles on the assays described herein, a comparison of a variety of particle types was conducted, including silica, polymethylmethacrylate (PMMA). Carboxyl modified PMMA particles (PolyAn GmbH, Berlin) were labeled with AK and biotin as described in Example 3, followed by coating with streptavidin. Silica particles were reacted with 3-aminopropylsiloxane in 1 mM acetic acid to provide an amine reactive group. The amine functional groups were reacted with AK-3 and biotin-LC-sulfoNHS, followed by coating with streptavidin.
Signal generation with Silica and PMMA particles. Assays using the HRP model system, as generally described in Example 1, were conducted on silica particles and PMMA particles, with and without ascorbic acid in the reaction mixture. The assays were run on a modified DxI instrument as described above. The assay conditions consisted of combining 45 μL BUFFER II (with or without ascorbic acid), 25 μL of particle suspension, and 15 μL of sample and incubating for 30 min. Then 100 μL of trigger solution A was added to the reaction vessel and the light intensity was recorded.

[3] = system: cTnI; test: Effect of ascorbic acid concentration on cTnI assay using various particles; details: ascorbic acid 150 μM to 9.4 μM; Dynal M-280, 6 μm CML, LodeStars; in words
Description: Effect of ascorbic acid on cTnI assay using various particles. The effect of varying the ascorbic acid concentration in the range 150 μM to 9.4 μM on chemiluminescence was investigated for assays employing Dynal M-280, 6 μm CML, and LodeStars particles.

[4] = Control (7.7), S1, PSA 400 pg/ml
[5] = Control (7.7), S2, PSA 1400 pg/ml
[6] = Control (7.7), S3, PSA 7000 pg/ml
[7] = Control (7.7), S4, PSA 51000 pg/ml
[8] = Control (7.7), S5, PSA 101600 pg/ml
[9] = pH 6.0 (6.2), S1, PSA 400 pg/ml
[10] = pH 6.0 (6.2), S2, PSA 1400 pg/ml
[11] = pH 6.0 (6.2), S3, PSA 7000 pg/ml
[12] = pH 6.0 (6.2), S4, PSA 51000 pg/ml
[13] = pH 6.0 (6.2), S5, PSA 101600 pg/ml
[14] = pH 7.0 (7.4), S1, PSA 400 pg/ml
[15] = pH 7.0 (7.4), S2, PSA 1400 pg/ml
[16] = pH 7.0 (7.4), S3, PSA 7000 pg/ml
[17] = pH 7.0 (7.4), S4, PSA 51000 pg/ml
[18] = pH 7.0 (7.4), S5, PSA 101600 pg/ml
[19] = pH 8.0 (7.9), S1, PSA 400 pg/ml
[20] = pH 8.0 (7.9), S2, PSA 1400 pg/ml
[21] = pH 8.0 (7.9), S3, PSA 7000 pg/ml
[22] = pH 8.0 (7.9), S4, PSA 51000 pg/ml
[23] = pH 8.0 (7.9), S5, PSA 101600 pg/ml
[24] = pH 9.0 (8.4), S1, PSA 400 pg/ml
[25] = pH 9.0 (8.4), S2, PSA 1400 pg/ml
[26] = pH 9.0 (8.4), S3, PSA 7000 pg/ml
[27] = pH 9.0 (8.4), S4, PSA 51000 pg/ml
[28] = pH 9.0 (8.4), S5, PSA 101600 pg/ml

Structure (SMILES): O=C1O[C@H]([C@@H](O)CO)C(O)=C1O [Ascorbic Acid, Ascorbic acid]
- Mean RLU ([1]; Control (7.7), S0, PSA 0 pg/ml): 8,192 RLU
- Mean RLU [1, 4]: 91,301 RLU
- S/S0 [1, 4]: 11.1
- Mean RLU [1, 5]: 403,035 RLU
- S/S0 [1, 5]: 49.2
- Mean RLU [1, 6]: 2,803,433 RLU
- S/S0 [1, 6]: 342.2
- Mean RLU [1, 7]: 10,490,375 RLU
- S/S0 [1, 7]: 1280.6
- Mean RLU [1, 8]: 10,598,780 RLU
- S/S0 [1, 8]: 1293.8
- Mean RLU ([1]; pH 6.0 (6.2), S0, PSA 0 pg/ml): 3,301 RLU
- Mean RLU [1, 9]: 34,485 RLU
- S/S0 [1, 9]: 10.4
- Mean RLU [1, 10]: 114,219 RLU
- S/S0 [1, 10]: 34.6
- Mean RLU [1, 11]: 786,859 RLU
- S/S0 [1, 11]: 238.3
- Mean RLU [1, 12]: 3,198,045 RLU
- S/S0 [1, 12]: 968.7
- Mean RLU [1, 13]: 3,728,345 RLU
- S/S0 [1, 13]: 1129.3
- Mean RLU ([1]; pH 7.0 (7.4), S0, PSA 0 pg/ml): 7,704 RLU
- Mean RLU [1, 14]: 87,221 RLU
- S/S0 [1, 14]: 11.3
- Mean RLU [1, 15]: 333,253 RLU
- S/S0 [1, 15]: 43.3
- Mean RLU [1, 16]: 2,640,633 RLU
- S/S0 [1, 16]: 342.8
- Mean RLU [1, 17]: 9,524,603 RLU
- S/S0 [1, 17]: 1236.3
- Mean RLU [1, 18]: 10,001,948 RLU
- S/S0 [1, 18]: 1298.3
- Mean RLU ([1]; pH 8.0 (7.9), S0, PSA 0 pg/ml): 9,345 RLU
- Mean RLU [1, 19]: 96,427 RLU
- S/S0 [1, 19]: 10.3
- Mean RLU [1, 20]: 429,327 RLU
- S/S0 [1, 20]: 45.9
- Mean RLU [1, 21]: 3,433,037 RLU
- S/S0 [1, 21]: 367.4
- Mean RLU [1, 22]: 11,497,652 RLU
- S/S0 [1, 22]: 1230.3
- Mean RLU [1, 23]: 11,461,215 RLU
- S/S0 [1, 23]: 1226.4
- Mean RLU ([1]; pH 9.0 (8.4), S0, PSA 0 pg/ml): 5,821 RLU
- Mean RLU [1, 24]: 73,801 RLU
- S/S0 [1, 24]: 12.7
- Mean RLU [1, 25]: 315,528 RLU
- S/S0 [1, 25]: 54.2
- Mean RLU [1, 26]: 2,592,673 RLU
- S/S0 [1, 26]: 445.4
- Mean RLU [1, 27]: 11,443,659 RLU
- S/S0 [1, 27]: 1965.8
- Mean RLU [1, 28]: 11,479,280 RLU
- S/S0 [1, 28]: 1971.9
- Mean RLU ([2]; HRP 0 ng/ml): 263 RLU
- S/S0 ([2]; HRP 0 ng/ml): 1.0
- RLU ([2]; HRP 0 ng/ml): 256 RLU and 260 RLU and 272 RLU
- Mean RLU ([2]; HRP 1 ng/ml): 6,988 RLU
- S/S0 ([2]; HRP 1 ng/ml): 26.6
- RLU ([2]; HRP 1 ng/ml): 6,712 RLU and 6,844 RLU and 7,408 RLU
- Mean RLU ([2]; HRP 10 ng/ml): 309,873 RLU
- S/S0 ([2]; HRP 10 ng/ml): 1178.2
- RLU ([2]; HRP 10 ng/ml): 310,600 RLU and 278,320 RLU and 340,700 RLU
- Mean RLU ([2]; HRP 100 ng/ml): 2,426,677 RLU
- S/S0 ([2]; HRP 100 ng/ml): 9226.9
- RLU ([2]; HRP 100 ng/ml): 2,306,036 RLU and 2,477,760 RLU and 2,496,236 RLU
- Mean RLU ([2]; HRP 250 ng/ml): 2,533,168 RLU
- S/S0 ([2]; HRP 250 ng/ml): 9631.8
- RLU ([2]; HRP 250 ng/ml): 2,535,712 RLU and 2,523,068 RLU and 2,540,724 RLU
- signal/background [3]: improved analytical sensitivity by increasing signal/background

Source: patent US20100273189A1, “NON SEPARATION ASSAYS WITH SELECTIVE SIGNAL INHIBITORS” (BECKMAN COULTER, INC., priority 2009, published 2010)
